Where two headings read alike, the source gives them in different places. Residues, ends and D or L forms follow the SMILES beside them. *: point of attachment. Cbz = O=C(OCc1ccccc1)*; OtBu = CC(C)(C)O*
Tests used:
[1] = tested on: normal mechanical sensitivity; assay: Normal mechanical sensitivity, von Frey stimulation of normal skin; conditions: intraplantar injection, 3 ul
Description: (§4) Schemes illustrate the experimental design testing the effect of local and intrathecal PW164 on normal mechanical sensitivity (left) and capsaicin-induced mechanical hypersensitivity (right), respectively. […] Drugs were given at the indicated concentrations in a final injected volume of 3 ul (A) or 5 ul (B); in panel B, drugs were injected 30 min after Cap injection.
(§5) In animals, hypersensitivity is manifested as increased withdrawals from von Frey filament stimulations of the injection site (FIG. 7).

[2] = biological target: T1, FGF13-1b:Nav1.6 channel (Homo sapiens, UniProt Q9UQD0); assay: Patch-clamp, steady-state inactivation in HEK-Nav1.6 cells expressing FGF13-1b; type: cell-based
T1 construct: expressed in transfected cells; host or cells: HEK-Nav1.6 cells
T1 sequence (Q9UQD0 whole entry): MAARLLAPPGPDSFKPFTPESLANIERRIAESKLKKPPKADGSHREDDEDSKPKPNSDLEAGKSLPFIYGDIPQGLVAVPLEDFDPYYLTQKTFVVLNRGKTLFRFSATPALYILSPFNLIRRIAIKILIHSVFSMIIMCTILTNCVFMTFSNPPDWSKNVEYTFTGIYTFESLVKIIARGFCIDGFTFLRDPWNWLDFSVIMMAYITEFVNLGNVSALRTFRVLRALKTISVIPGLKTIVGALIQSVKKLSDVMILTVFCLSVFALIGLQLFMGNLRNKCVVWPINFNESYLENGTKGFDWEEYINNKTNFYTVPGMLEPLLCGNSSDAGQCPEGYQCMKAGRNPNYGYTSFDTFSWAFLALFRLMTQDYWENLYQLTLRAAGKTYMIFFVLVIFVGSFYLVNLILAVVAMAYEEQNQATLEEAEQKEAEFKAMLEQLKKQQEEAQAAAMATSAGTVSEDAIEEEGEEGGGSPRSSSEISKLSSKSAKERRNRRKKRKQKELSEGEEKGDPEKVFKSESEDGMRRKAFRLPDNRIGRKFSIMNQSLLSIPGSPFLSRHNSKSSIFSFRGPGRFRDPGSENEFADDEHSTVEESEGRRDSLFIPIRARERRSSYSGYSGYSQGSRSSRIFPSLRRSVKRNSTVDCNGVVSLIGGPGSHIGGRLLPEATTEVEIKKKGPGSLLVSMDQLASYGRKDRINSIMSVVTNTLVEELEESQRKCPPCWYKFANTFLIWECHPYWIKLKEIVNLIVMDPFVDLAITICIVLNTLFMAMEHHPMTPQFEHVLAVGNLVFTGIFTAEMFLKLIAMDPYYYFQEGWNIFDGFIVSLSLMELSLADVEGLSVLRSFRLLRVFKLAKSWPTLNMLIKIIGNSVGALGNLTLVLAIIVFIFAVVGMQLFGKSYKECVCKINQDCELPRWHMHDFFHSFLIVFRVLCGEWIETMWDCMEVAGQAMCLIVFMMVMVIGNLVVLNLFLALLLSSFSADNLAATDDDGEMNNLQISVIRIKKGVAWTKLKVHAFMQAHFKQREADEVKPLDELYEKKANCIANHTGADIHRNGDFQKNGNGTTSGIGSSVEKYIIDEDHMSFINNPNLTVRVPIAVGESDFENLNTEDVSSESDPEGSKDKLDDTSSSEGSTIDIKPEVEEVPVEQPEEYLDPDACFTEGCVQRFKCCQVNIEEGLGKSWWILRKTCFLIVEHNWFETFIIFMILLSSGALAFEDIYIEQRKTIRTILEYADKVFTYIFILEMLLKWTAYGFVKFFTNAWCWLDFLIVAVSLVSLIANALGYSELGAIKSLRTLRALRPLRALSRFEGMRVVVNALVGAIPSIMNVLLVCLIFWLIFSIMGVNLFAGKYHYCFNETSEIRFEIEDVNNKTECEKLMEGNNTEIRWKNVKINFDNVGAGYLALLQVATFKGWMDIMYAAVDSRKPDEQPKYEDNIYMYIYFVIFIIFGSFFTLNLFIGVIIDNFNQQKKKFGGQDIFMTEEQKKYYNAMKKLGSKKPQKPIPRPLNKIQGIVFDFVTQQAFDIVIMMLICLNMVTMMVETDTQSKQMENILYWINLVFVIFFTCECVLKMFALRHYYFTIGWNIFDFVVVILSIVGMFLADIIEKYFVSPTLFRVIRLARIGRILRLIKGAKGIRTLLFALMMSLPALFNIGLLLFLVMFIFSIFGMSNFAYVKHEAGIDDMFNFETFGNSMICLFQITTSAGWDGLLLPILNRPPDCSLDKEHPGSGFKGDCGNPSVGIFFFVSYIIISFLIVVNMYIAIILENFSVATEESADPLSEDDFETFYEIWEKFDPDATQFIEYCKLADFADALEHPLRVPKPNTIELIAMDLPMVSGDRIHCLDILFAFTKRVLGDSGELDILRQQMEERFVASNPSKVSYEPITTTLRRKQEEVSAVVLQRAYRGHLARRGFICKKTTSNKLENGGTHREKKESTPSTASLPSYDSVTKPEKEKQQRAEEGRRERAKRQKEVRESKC
Description: FIG. 6. […] HEK-Nav1.6 cells were transiently expressing GFP, FGF13-1b-GFP or FGF13-1a-GFP in the presence of DMSO (blue, red and dark red) 50 μM PW164 (black, green, dark green) A, Normalized current as a function of voltage (voltage dependence of steady-state inactivation) with Boltzmann fitting B Bar graph represents V1/2 of steady state inactivation. C. Normalized conductance (G/Gmax) as a function of voltage (voltage dependence of activation) with Boltzmann fitting. D. Bar graph represents V1/2 of activation. Data are represented as mean±SEM; n=4-8 cells per group. **p<0.01; One-WAY ANOVA, post-hoc Bonferroni.
(§1) Based on the success of other PPI regulators targeting ion channels we used the same rationale of selecting compounds that could act as a FGF13 isoform specific blocking FGF13-1b isoform effects mimicking FGF13-1a and select PW164 for functional assays. We used patch-clamp electrophysiology and begun functional validation of the lead compound using a panel of biophysical protocols targeting Nav channels (FIG. 5, 6).

[3] = DMPK profile, oral and intravenous dosing; type: in vivo; conditions: oral 20 mg/kg, mouse
Description: Relevant parameters such as half-time (t1/2), maximal concentration (Cmax), area under the curve (AUC), apparent volume of distribution at steady state (Vss), clearance (CL) and bioavailability (% F) were calculated in a mouse model.

[4] = biological target: T2, FGF13-1a:Nav1.6 (Homo sapiens, UniProt Q9UQD0); assay: Split-luciferase complementation assay (LCA), FGF13-1a:Nav1.6 complex; type: cell-based; conditions: LCA dose response, normalized to 0.5% DMSO
T2 construct: luciferase fragment (split-luciferase half); expressed in transfected cells
T2 sequence (Q9UQD0 1763-1980 limits assumed): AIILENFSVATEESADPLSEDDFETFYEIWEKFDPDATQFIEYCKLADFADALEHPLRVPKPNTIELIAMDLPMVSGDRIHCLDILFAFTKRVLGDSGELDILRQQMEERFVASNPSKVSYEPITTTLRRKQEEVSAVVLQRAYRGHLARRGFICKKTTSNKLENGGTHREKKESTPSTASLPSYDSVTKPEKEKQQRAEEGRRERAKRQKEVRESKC
Source text: FIG. 2. In-cell reconstitution of FGF13: Nav1.6 complexes using the split-luciferase assay. A. Principle of split-luciferase assay. B. Luminescence-based complementation assay (LCA) of the FGF13-1a:Nav1.6 (solid dots) and FGF13-1b:Nav1.6 C-tail complex (open dots); control conditions are depicted in black; corresponding dark red dots refer to LCA complexes in the presence of the tyrosine kinase inhibitor MNS used as negative control. C,D. Summary bar graphs depicting assay robustness with respective Z′ score calculations for each LCA complex.
(§2) FIG. 3. PW164 inhibits FGF13-1b but not FGF13-1a binding to the Nav1.6 C-tail. […] Data are normalized with respect to 0.5% DMSO (vehicle). (C) PW164 has no effect on full length luciferase in transiently transfected HEK293 cells. (D) PW164 is not toxic toward HEK293 cells using the LDH cytotoxicity assay.

[5] = biological target: human cardiac ERG channel (hERG) (Homo sapiens, UniProt Q12809); assay: hERG channel activity
human cardiac ERG channel (hERG), sequence (Q12809 whole entry, canonical isoform): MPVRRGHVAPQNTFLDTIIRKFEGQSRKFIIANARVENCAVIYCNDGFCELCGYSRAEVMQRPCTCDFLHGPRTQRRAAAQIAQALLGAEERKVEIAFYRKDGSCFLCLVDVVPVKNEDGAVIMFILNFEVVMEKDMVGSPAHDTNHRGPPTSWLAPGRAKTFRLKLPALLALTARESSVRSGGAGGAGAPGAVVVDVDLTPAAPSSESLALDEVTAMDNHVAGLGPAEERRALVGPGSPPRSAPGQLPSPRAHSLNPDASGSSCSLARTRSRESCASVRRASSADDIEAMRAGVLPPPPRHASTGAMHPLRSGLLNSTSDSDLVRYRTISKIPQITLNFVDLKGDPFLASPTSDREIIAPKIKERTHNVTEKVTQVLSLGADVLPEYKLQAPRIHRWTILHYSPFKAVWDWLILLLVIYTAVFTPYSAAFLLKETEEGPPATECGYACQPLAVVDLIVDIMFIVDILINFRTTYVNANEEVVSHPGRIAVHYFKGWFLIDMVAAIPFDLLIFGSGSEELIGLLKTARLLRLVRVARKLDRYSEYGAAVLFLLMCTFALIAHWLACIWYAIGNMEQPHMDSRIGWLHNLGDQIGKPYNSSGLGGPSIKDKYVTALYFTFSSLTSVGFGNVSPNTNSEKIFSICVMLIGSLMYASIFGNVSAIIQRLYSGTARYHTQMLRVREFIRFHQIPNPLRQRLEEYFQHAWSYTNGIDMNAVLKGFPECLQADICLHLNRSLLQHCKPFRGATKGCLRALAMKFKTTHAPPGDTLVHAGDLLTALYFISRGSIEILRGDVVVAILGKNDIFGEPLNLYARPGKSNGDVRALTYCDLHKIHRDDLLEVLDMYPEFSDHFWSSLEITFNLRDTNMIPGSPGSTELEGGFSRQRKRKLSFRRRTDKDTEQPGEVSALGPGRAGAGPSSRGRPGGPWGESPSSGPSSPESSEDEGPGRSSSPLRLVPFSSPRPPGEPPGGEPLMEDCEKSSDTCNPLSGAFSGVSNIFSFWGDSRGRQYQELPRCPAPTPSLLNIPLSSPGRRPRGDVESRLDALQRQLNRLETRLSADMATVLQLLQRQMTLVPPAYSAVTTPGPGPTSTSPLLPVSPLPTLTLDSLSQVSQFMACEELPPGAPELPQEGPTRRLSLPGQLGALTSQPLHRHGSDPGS
Description: (§3) FIG. 12. In vitro studies of PW164 plasma and blood metabolic stability in rodent and preclinical human models. Intestinal absorption using the P-glycoprotein (P-gp) inhibition (IC50) assay as well as activity against the human cardiac ERG channel (hERG) as well as liver toxicity tests against various isoforms of the cytochrome P450 were conducted. […] This might be favorable for peripheral therapeutics with the advantage of no brain-associated side toxicity effects.

[6] = biological target: T3, Nav1.6 (Homo sapiens, UniProt Q9UQD0); assay: Patch-clamp, Na+ transient currents in HEK-Nav1.6 cells; type: cell-based; conditions: 50 μM
T3 construct: expressed in transfected cells; host or cells: HEK-Nav1.6 cells
T3 sequence (Q9UQD0 whole entry): as the sequence (Q9UQD0 whole entry) above
Description: FIG. 5. […] A. Representative traces of Na+ transient currents (INa+) recorded from HEK-Nav1.6 cells transiently expressing the indicated constructs in response to depolarizing voltage steps in the presence of 50 μM PW164 or DMSO. B. Current-voltage relationship (I-V) derived from A. C. Summary bar graphs derived from A,B. Data are represented as mean±SEM; n=4-8 cells per group. *p<0.05; One-WAY ANOVA, post-hoc Bonferroni.
as §1

[7] = tested on: capsaicin-induced mechanical hypersensitivity; assay: Capsaicin-induced pain model, von Frey mechanical hypersensitivity; type: in vivo, mice
[8] = Whole blood stability; type: in vitro ADME
Description: as §3

[9] = tested on: normal mechanical sensitivity; conditions: mouse, in vivo
Description: as §4, §5

[10] = Plasma metabolic stability; type: in vitro ADME
Description: as §3

[11] = tested on: cytochrome P450; assay: Cytochrome P450 isoform tests; type: in vitro ADME; conditions: various isoforms
Description: as §3

[12] = biological target: T4, full length luciferase (Photinus pyralis, UniProt P08659); assay: Full length luciferase counter-screen in transiently transfected HEK293 cells; type: cell-based
T4 construct: PW164 has no effect on full length luciferase in transiently transfected HEK293 cells; expressed in transfected cells; host or cells: HEK293
T4 sequence (P08659 whole entry, species assumed): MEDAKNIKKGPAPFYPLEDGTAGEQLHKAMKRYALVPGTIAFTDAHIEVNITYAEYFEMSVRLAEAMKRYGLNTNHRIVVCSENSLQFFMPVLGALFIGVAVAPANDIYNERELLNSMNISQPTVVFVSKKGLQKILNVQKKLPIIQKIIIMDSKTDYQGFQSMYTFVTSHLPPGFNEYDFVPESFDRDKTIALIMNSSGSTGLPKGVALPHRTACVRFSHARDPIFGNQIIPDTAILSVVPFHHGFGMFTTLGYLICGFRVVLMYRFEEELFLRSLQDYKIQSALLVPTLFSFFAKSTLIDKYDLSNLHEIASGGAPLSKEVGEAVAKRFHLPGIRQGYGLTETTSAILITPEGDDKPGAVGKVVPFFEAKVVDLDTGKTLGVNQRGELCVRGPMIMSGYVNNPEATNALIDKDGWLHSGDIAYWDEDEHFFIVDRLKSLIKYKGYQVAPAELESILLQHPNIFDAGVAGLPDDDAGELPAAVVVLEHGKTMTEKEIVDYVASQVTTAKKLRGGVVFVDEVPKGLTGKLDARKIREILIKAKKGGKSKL
Source text: as §2

[13] = tested on: mechanical hypersensitivity at the surgical wound; assay: Plantar incision model of post-operative pain; type: in vivo, mice; conditions: administered to the wound, 3 μL
Source text: FIG. 10. […] After plantar incision, mice develop profound mechanical hypersensitivity to LVF at the surgical wound (scheme).

[14] = biological target: T5, FGF13-1b:Nav1.6 C-tail complex (Homo sapiens, UniProt Q9UQD0); assay: Split-luciferase complementation assay (LCA), FGF13-1b:Nav1.6 C-tail complex; type: cell-based; conditions: LCA dose response, normalized to 0.5% DMSO; read-out: IC50, prevention of FGF13:Nav1.6 complex assembly
T5 construct: luciferase fragment (split-luciferase half); expressed in transfected cells
T5 sequence (Q9UQD0 1763-1980 limits assumed, one chain of several): as the sequence (Q9UQD0 1763-1980 limits assumed) above
Source text: In-cell reconstitution of FGF13: Nav1.6 complexes using the split-luciferase assay. […] B. Luminescence-based complementation assay (LCA) of the FGF13-1a:Nav1.6 (solid dots) and FGF13-1b:Nav1.6 C-tail complex (open dots); control conditions are depicted in black; corresponding dark red dots refer to LCA complexes in the presence of the tyrosine kinase inhibitor MNS used as negative control.

[15] = tested on: HEK293 cells; type: cell-based
Source text: as §2

| SMILES | Normal mechanical sensation, paw withdrawal response to LVF and HVF [1] | Availability of FGF13-1b:Nav1.6 channel pool ([2]; 50 μM, HEK-Nav1.6 cells expressing FGF13-1b-GFP) | Shift in V1/2 of steady-state inactivation ([2]; in the presence of FGF13-1b) | Oral bioavailability ([3]; intravenous 10 mg/kg) | Oral half-life [3] | Effect on FGF13-1A binding to Nav1.6 [4] | hERG liability [5] | Effect on Na+ transient currents [6] | Capsaicin-induced mechanical hypersensitivity ([7]; intrathecal, 5 ul, 30 min after capsaicin) | Duration of effect compared to bupivacaine ([7]; local injection at capsaicin site) | Mechanical hypersensitivity to LVF and HVF von Frey stimulation ([7]; local injection at capsaicin site, 30 min after capsaicin, 3 ul) | Human whole blood stability [8] | Normal mechanical sensation, paw withdrawal response to LVF and HVF [9] | Human plasma metabolic stability [10] | CYP450s liability [11] | Effect on full length luciferase [12] | Mechanical hypersensitivity to LVF at surgical wound [13] | IC50 [14] | Cytotoxicity (LDH) [15] |
| --- | --- | --- | --- | --- | --- | --- | --- | --- | --- | --- | --- | --- | --- | --- | --- | --- | --- | --- | --- |
| CCCCN1CCCCC1C(=O)Nc1c(C)cccc1C (stereo not shown) [bupivacaine] | complete sensory block |  |  |  |  |  |  |  |  |  |  |  |  |  |  |  |  |  |  |
| COC(=O)[C@@H](NC(=O)[C@H](CCC(=O)OC(C)(C)C)NC(=O)[C@H](CC(C)C)NC(=O)[C@@H]1CCCN1C(=O)OCc1ccccc1)C(C)C [PW164, Benzyl(S)-2-(((S)-1-(((S)-5-(tert-butoxy)-1-(((S)-1-methoxy-3-methyl-1-oxobutan-2-yl)amino)-1,5-dioxopentan-2-yl)amino)-4-methyl-1-oxopentan-2-yl)carbamoyl) pyrrolidine-1-carboxylate] (Cbz-PLE(OtBu)V-OMe) |  | decreases availability | hyperpolarizing shift | moderate | moderate | does not have a significant effect | no hERG and CYP450s liabilities | acts as a FGF13-1a mimic on transient Na+ currents | does not inhibit | longer-lasting effects without completely blocking mechanical sensation | dose-dependently inhibits mechanical hypersensitivity | high | no changes in paw withdrawal response | high | no hERG and CYP450s liabilities | no effect | inhibits the hypersensitivity | 17.8 µM | not toxic |
